The values that follow come from patent US20220144826A1, “Heteroaromatic and Heterobicyclic Aromatic Derivatives for the Treatment of Ferroptosis-Related Disorders” (COLLABORATIVE MEDICINAL DEVELOPMENT, LLC, priority 2019, published 2022).

Broadly, the IC50 is the concentration needed to halve the response being measured. A higher IC50 goes with weaker potency in that assay.

For this assay, the system named is N27 rat dopaminergic neural cells. As to the kind of experiment: MTT assay in N27 rat dopaminergic neural cells: inhibition of RSL3-induced cell death (ferroptosis). The assay is classed as cell-based. To be noted: ferroptosis induced by 0.5 μM RSL3, 24 hours, viability by MTT. As for the experimental part:
MTT Assay in N27 Rat Dopaminergic Neural Cells
N27 rat dopaminergic neural cells (Millipore, SCC048) were cultured in RPMI-1640 media (Wisent, 350-000) supplemented with 1×GlutaMAX (Gibco, 35050-061), 10% FBS (embryonic stem cell qualified; Wisent, 920-040), and 1× Penicillin-Streptomycin (Wisent, 450-201). Cells were grown in humidified tissue culture incubator at 37° C. with 5% CO2, for up to 10 passages. To evaluate the ability of test compounds to inhibit RSL3-induced cell death, N27 cells were seeded in clear 96-well tissue culture plates (Sarstedt, 83.3924) at a density of 15,000 cells/well. On the next day, the medium was changed to fresh complete RPMI-1640. Eight-point dilution series of test compounds were added to the cells. Then, ferroptosis was induced by addition of 0.5 μM RSL3 (vehicle-treated cells served as control). Ferrostatin-1 (Fer-1) was included in each assay as control inhibitor of ferroptosis. Plates were incubated for 24 hours at 37° C. in a tissue culture incubator, then cell viability was determined by MTT assay. Briefly, Thiazolyl Blue Tetrazolium Bromide [3-(4,5-dimethylthiazol-2-yl)-2,5-diphenyltetrazolium bromide or “MTT” ] (Sigma) stock solution (5 mg/mL in PBS, sterilized by filtration) was diluted 1:1 with complete growth medium, and added on the cells to a final concentration of 0.5 mg/mL. Cells were incubated with MTT for 4 hours at 37° C., protected from light, in a humidified, 5% CO2 atmosphere. Medium was then completely removed from the wells by gentle aspiration and converted MTT formazan crystals were dissolved in 150 μL of DMSO. Absorbance of converted dye was measured at 595 nm with background subtraction at 690 nm using the BioTek Cytation5 Microplate Reader. Blank reading (absorbance from wells containing media and vehicle only, no cells) was removed from all sample wells. Viability was calculated as a percentage of control cells (vehicle-treated cells were set as 100% viability). Dose-response curves were drawn and IC50 values were calculated using GraphPad Prism software, version 7.
(In general: Tetrazolium dyes change colour on reduction, which living cells bring about.)

As for `CC1(Nc2nc(-c3ccc(F)cc3)ccc2NC2CCOC2)CCOC1` (stereo not shown) [Compound M-23, 6-(4-fluorophenyl)-N^2-(3-methyltetrahydrofuran-3-yl)-N^3-tetrahydrofuran-3-yl-pyridine-2,3-diamine], the IC50 (Rattus norvegicus, N27, 24 h) is 3 to 6 nM.

Under “Rattus norvegicus, N27, 24 h”, `CON(C)C(=O)c1ccc2c(c1)C=CC(C)(C)N2` [Compound B-065] showed an IC50 above 3000 nM.

Compound `CCOC(=O)c1cc2c(c(NC3CCCC3)c1)NC(C)(C)CC2` [Compound B-273, Ethyl 8-cyclopentylamino-2,2-dimethyl-3,4-dihydro-1H-quinoline-6-carboxylate] showed an IC50 (Rattus norvegicus, N27, 24 h) of 1040 nM. Still for that read-out and setting: next, `CCCCC(=O)c1cc2c(c(OC3CCCC3)c1)NCCC2` [Compound Q-980, 1-[8-(cyclopentoxy)-1,2,3,4-tetrahydroquinolin-6-yl]pentan-1-one]: above 3000 nM. On the same count and under the same terms, next, `CCOC(=O)c1cc(N)c2c(c1)OCCN2` [Compound I-85]: above 1000 nM. The compound `CCC(C)Nc1ccc(-c2ccncc2)nc1NC(C)(C)C` (stereo not shown) [Compound P-22] yielded an IC50 (Rattus norvegicus, N27, 24 h) of 1 nM. `CCCC(=O)c1ccc(NC2CC(F)(F)C2)c(NC2CC(F)(F)C2)n1` [Compound P-47, 1-[5,6-bis[(3,3-difluorocyclobutyl)amino]-2-pyridyl]butan-1-one] returned an IC50 (Rattus norvegicus, N27, 24 h) of 201 nM. For the setting “Rattus norvegicus, N27, 24 h”, `CCC/C=C/c1nc(NC2CCOC2)c2c(n1)OCC(=O)N2` (stereo not shown) [Compound B-603, 4-[(oxolan-3-yl)amino]-2-[(1E)-pent-1-en-1-yl]-5H,6H,7H-pyrimido[4,5-b][1,4]oxazin-6-one] returned an IC50 above 3000 nM. Same read-out and setting: next, `CCC(C)Nc1ccc(-c2cccnc2)nc1NC1CCCC1` (stereo not shown) [Compound H-74, N^2-cyclopentyl-6-(3-pyridyl)-N^3-sec-butyl-pyridine-2,3-diamine]: 5 nM. Still for that read-out and setting: under `CCCCC(=O)c1nc2c(c(NC3CCCC3)n1)NCCC2` [Compound C-82, 1-[4-(cyclopentylamino)-5,6,7,8-tetrahydropyrido[3,2-d]pyrimidin-2-yl]pentan-1-one] stands 84 nM.

With `CCCCC(O)c1nc2c(c(N3CCCC3)n1)NCCC2` (stereo not shown) [Compound E-09], the IC50 (Rattus norvegicus, N27, 24 h) stood at 492 nM. The same measure, in the same setting: under `c1cncc(-c2ccc(NC3COC3)c(NC3CCCC3)n2)c1` [Compound H-75, N^2-cyclopentyl-N^3-(oxetan-3-yl)-6-(3-pyridyl)pyridine-2,3-diamine] stands 44 nM. The compound `CCCCCc1nc2c(c(NC3CCCC3)n1)NCCC2` [Compound A-63, N-cyclopentyl-2-pentyl-5,6,7,8-tetrahydropyrido[3,2-d]pyrimidin-4-amine] showed an IC50 of 313 nM.

`CCCCC(=O)c1cc2c(c(N(S(=O)(=O)CC(C)C)S(=O)(=O)CC(C)C)c1)NCCC2` [Compound B-248, N-isobutylsulfonyl-2-methyl-N-(6-pentanoyl-1,2,3,4-tetrahydroquinolin-8-yl)propane-1-sulfonamide]: the IC50 (Rattus norvegicus, N27, 24 h) was above 3000 nM. On the same count and under the same terms, next, `CCC(C)Nc1ccc(-c2ccc(OC)cc2)nc1NC1CCCC1` (stereo not shown) [Compound H-86, N^2-cyclopentyl-6-(4-methoxyphenyl)-N^3-sec-butyl-pyridine-2,3-diamine]: 8 nM; `CCC/C=C/c1nc(NC2CCCC2)c2c(n1)SCC(=O)N2` [Compound B-600, 4-(cyclopentylamino)-2-[(1E)-pent-1-en-1-yl]-5H,6H,7H-pyrimido[4,5-b][1,4]thiazin-6-one]: at least 3000 nM. On the same count and under the same terms, under `OC(c1ccccc1)c1nc2c(c(NC3CCCC3)n1)NCCC2` (stereo not shown) [Compound A-10, [4-(cyclopentylamino)-5,6,7,8-tetrahydropyrido[3,2-d]pyrimidin-2-yl]-phenyl-methanol] stands 71 nM; under `CCCCCc1cc2c(c(Nc3ccccn3)c1)NCCC2` [Compound B-308], 18 nM; under `CCCCCc1nc2c(c(NC3CCCC3)n1)NCCC2` [Compound B-349, N-Cyclopentyl-2-pentyl-5,6,7,8-tetrahydropyrido[3,2-d]pyrimidin-4-amine], 170 nM. With `CCCCC(=O)c1cc2c(c(-n3ccnc3)c1)NCCC2` [Compound B-006, 1-(8-imidazol-1-yl-1,2,3,4-tetrahydroquinolin-6-yl)pentan-1-one], where the note is “Rattus norvegicus, N27, 24 h”, the IC50 is above 3000 nM. Still for that read-out and setting: next, `CCCCC(O)c1cc2c(c(Nc3ccccn3)c1)NCCC2` (stereo not shown) [Compound B-250, 1-[8-(2-pyridylamino)-1,2,3,4-tetrahydroquinolin-6-yl]pentan-1-ol]: 139 nM; `O=C(c1ccc(F)cc1)c1nc2c(c(NC3CCCC3)n1)NCCC2` [Compound A-17, [4-(cyclopentylamino)-5,6,7,8-tetrahydropyrido[3,2-d]pyrimidin-2-yl]-(4-fluorophenyl)methanone]: 123 nM.

`CCCCC(=O)c1cc2c(c(-c3ccncc3)c1)NCCC2` [Compound Q-950, 1-[8-(4-pyridyl)-1,2,3,4-tetrahydroquinolin-6-yl]pentan-1-one] yielded an IC50 (Rattus norvegicus, N27, 24 h) above 3000 nM.

`CCOC(=O)c1cc(N)c2c(c1)CCC(C)(C)N2` [Compound B-256]: the IC50 (Rattus norvegicus, N27, 24 h) stood at 3820 nM. Same read-out and setting: next, `CCCCC(=O)c1cc2c(c(NS(=O)(=O)CC(C)C)c1)NCCC2` [Compound B-251, 2-methyl-N-(6-pentanoyl-1,2,3,4-tetrahydroquinolin-8-yl)propane-1-sulfonamide]: 9300 nM; `CCCCC(=O)c1cc2c(c(NC(C)(C)C)n1)NCCC2` [Compound S-168, 1-[8-(tert-butylamino)-1,2,3,4-tetrahydro-1,7-naphthyridin-6-yl]pentan-1-one]: 13 nM; `CC1(Nc2nc(C(F)(F)F)ccc2NC2CCOC2)CCOC1` (stereo not shown) [Compound K-67, N^2-(3-methyltetrahydrofuran-3-yl)-N^3-tetrahydrofuran-3-yl-6-(trifluoromethyl)pyridine-2,3-diamine]: 355 nM. Same read-out and setting: under `CCC(C)Nc1ccc(-c2cncnc2)nc1NC1CCCC1` (stereo not shown) [Compound H-80, N^2-cyclopentyl-6-pyrimidin-5-yl-N^3-sec-butyl-pyridine-2,3-diamine] stands 7 nM. The same measure, in the same setting: under `CCCCN(C)c1nc2c(c(NC3CCCC3)n1)NCCC2` [Compound B-434, N2-Butyl-N4-cyclopentyl-N2-methyl-5,6,7,8-tetrahydropyrido[3,2-d]pyrimidine-2,4-diamine] stands 397 nM; under `CC1(Nc2nc(-c3ccc(F)cc3)nc3c2NCCC3)CCOC1` (stereo not shown) [Compound M-14, 2-(4-fluorophenyl)-N-(3-methyltetrahydrofuran-3-yl)-5,6,7,8-tetrahydropyrido[3,2-d]pyrimidin-4-amine], 29 nM.

In turn, `CCCCNc1nc2c(c(NC3CCCC3)n1)NCCC2` [Compound B-433, N2-Butyl-N4-cyclopentyl-5,6,7,8-tetrahydropyrido[3,2-d]pyrimidine-2,4-diamine] yielded an IC50 (Rattus norvegicus, N27, 24 h) of 726 nM. Still for that read-out and setting: next, `CCCC#Cc1nc2c(c(NC3CCCC3)n1)NCCC2` [Compound A-27, N-cyclopentyl-2-pent-1-ynyl-5,6,7,8-tetrahydropyrido[3,2-d]pyrimidin-4-amine]: 34 nM. Same read-out and setting: under `CCC(C)Nc1ccc(-c2ccncc2)nc1NC1CCCC1` (stereo not shown) [Compound H-76, N^2-cyclopentyl-6-(4-pyridyl)-N^3-sec-butyl-pyridine-2,3-diamine] stands 6 nM; under `CCCCCc1nc(NC2CCCC2)c2c(n1)S(=O)(=O)CCN2` [Compound B-602, N-cyclopentyl-8,8-dioxo-2-pentyl-6,7-dihydro-5H-pyrimido[4,5-b][1,4]thiazin-4-amine], at least 3000 nM; under `CC1(Nc2nc(-c3ccccn3)ccc2NC2CCOC2)CCOC1` [Compound L-23, N^2-(3-methyltetrahydrofuran-3-yl)-6-(2-pyridyl)-N^3-tetrahydrofuran-3-yl-pyridine-2,3-diamine], 141 nM. Same read-out and setting: under `CCC(C)Nc1ccc(C(F)(F)F)nc1NC1CCCC1` (stereo not shown) [Compound K-65, N^2-cyclopentyl-N^3-sec-butyl-6-(trifluoromethyl)pyridine-2,3-diamine] stands 45 nM.

In turn, `CC(C)(C)Nc1ccc(-c2ccncc2)nc1NC1CCCC1` [Compound L-04, N^3-tert-butyl-N^2-cyclopentyl-6-(4-pyridyl)pyridine-2,3-diamine] registered an IC50 (Rattus norvegicus, N27, 24 h) of 5 nM. For `CCC(C)Nc1cnc(-c2ccncc2)nc1NC1CCCC1` (stereo not shown) [Compound F-88, N^4-cyclopentyl-2-(4-pyridyl)-N^5-sec-butyl-pyrimidine-4,5-diamine], for the setting “Rattus norvegicus, N27, 24 h”, the IC50 came to 106 nM. Take `c1cc(-c2ccc(NC3COC3)c(NC3CCCC3)n2)ccn1` [Compound H-77, N^2-cyclopentyl-N^3-(oxetan-3-yl)-6-(4-pyridyl)pyridine-2,3-diamine]: the IC50 (Rattus norvegicus, N27, 24 h) amounted to 13 nM. The same measure, in the same setting: next, `Cc1ccc(-c2ccc(NC(C)(C)C)c(NC3CCCC3)n2)cc1` [Compound A-98, N^3-tert-butyl-N^2-cyclopentyl-6-(p-tolyl)pyridine-2,3-diamine]: 7 nM.
